Columns and labels:
[1] = tested on: Cavia porcellus; assay: Compound was tested in vivo for LTB4 induced bronchoconstriction in guinea pig (2 hr pretreatment).; assay type: functional
[2] = tested on: Cavia porcellus; assay: Compound was tested in vivo inhibitory activity against LTB4 induced bronchoconstriction in guinea pig(orally) (20 hr pretreatment); assay type: functional; settings: po
[3] = biological target: T1, Cysteinyl leukotriene receptor (Homo sapiens, UniProt Q9Y271+Q9NS75); assay: Binding affinity against Cysteinyl leukotriene D4 receptor; assay type: protein assay
T1 sequence (Q9Y271 whole entry): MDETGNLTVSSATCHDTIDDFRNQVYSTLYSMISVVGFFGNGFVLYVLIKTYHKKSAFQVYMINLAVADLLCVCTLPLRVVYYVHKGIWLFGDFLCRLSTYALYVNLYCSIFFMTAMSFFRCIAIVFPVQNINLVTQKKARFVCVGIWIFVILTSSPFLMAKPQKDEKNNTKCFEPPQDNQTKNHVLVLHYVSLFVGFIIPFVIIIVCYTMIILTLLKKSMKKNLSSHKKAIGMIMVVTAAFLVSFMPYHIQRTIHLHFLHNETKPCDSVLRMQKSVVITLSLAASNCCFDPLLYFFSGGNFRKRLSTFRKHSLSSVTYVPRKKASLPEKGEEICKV
T1 sequence (Q9NS75 whole entry): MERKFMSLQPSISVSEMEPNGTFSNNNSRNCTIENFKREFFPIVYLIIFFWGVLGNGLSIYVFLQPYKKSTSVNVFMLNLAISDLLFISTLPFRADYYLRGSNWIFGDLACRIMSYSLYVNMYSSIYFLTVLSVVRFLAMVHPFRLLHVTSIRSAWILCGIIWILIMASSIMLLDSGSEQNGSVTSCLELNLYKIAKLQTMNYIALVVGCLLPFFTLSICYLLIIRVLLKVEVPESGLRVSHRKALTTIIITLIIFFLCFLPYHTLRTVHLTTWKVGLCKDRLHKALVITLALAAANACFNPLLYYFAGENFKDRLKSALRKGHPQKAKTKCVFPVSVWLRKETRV

[4] = species: Homo sapiens; assay: Compound was tested for fold shift in LTD4 dose response curve following 800 microg aerosol dose in mild asthmatics.; assay type: functional
[5] = species: Homo sapiens; assay: Compound was tested for fold shift in LTD4 dose response curve 2 hour following 100 microg aerosol dose in normal subjects.; assay type: functional
[6] = tested on: Homo sapiens; assay: Compound was tested for fold shift in LTD4 bronchoconstriction dose response curve following a 400 mg oral dose.; assay type: functional, Lung
[7] = tested on: Cavia porcellus; assay: Compound was tested in vivo inhibitory activity against LTB4 induced bronchoconstriction (intravenous); assay type: functional
[8] = tested on: Cavia porcellus; assay: Compound was tested in vivo inhibitory activity against LTB4 induced bronchoconstriction (orally); assay type: functional; settings: po
[9] = species: Homo sapiens; assay: Compound was tested in vitro inhibitory activity against LTB4 induced Ca mobilization; assay type: functional
[10] = biological target: T2, Leukotriene B4 receptor 1 (Homo sapiens, UniProt Q15722); assay: Compound was tested for inhibitory activity against human neutrophil LTB4 receptor binding
T2 sequence (Q15722 whole entry): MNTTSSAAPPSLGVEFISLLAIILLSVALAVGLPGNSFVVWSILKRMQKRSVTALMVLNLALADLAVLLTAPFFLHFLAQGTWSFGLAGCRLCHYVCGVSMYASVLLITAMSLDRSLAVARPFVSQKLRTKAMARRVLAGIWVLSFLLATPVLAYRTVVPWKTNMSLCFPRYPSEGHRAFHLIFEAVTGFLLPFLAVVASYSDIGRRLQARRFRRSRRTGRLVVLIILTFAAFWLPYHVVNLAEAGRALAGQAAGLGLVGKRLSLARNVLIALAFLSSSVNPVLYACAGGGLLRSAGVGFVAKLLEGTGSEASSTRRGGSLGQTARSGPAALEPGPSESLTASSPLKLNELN

[11] = species: Homo sapiens; assay: Compound was tested in vitro inhibitory activity against human neutrophil CD11b/CD18.; assay type: functional
[12] = tested on: Cavia porcellus; assay: Compound was tested for in vivo inhibition against gp antigen bronchospasm; assay type: functional; settings: Bronchiole
[13] = species: Homo sapiens; assay: Compound was tested for in vitro inhibition against human whole blood; assay type: functional
[14] = tested on: Mus musculus; assay: Compound was tested for in vivo inhibition against mouse AA ear edema; assay type: functional
[15] = species: Mus musculus; assay: Compound was tested for in vitro inhibition against murine macrophage; assay type: functional
[16] = tested on: Rattus norvegicus; assay: Compound was tested for in vivo inhibition against rat zymosan-inflamed air pouch; assay type: functional
[17] = species: Homo sapiens; assay: Compound was tested in vitro inhibitory activity against […] induced CD11 up-regulation.; assay type: functional, organism-based
[18] = species: Homo sapiens; assay: Compound was tested in vitro inhibitory activity against […] induced Ca mobilization.; assay type: functional, organism-based
[19] = species: Homo sapiens; assay: Compound was tested in vitro inhibitory activity against […] induced aggregation.; assay type: functional, organism-based
[20] = species: Homo sapiens; assay: Compound was tested in vitro inhibitory activity against […] induced chemotaxis; assay type: functional, organism-based
[21] = tested on: Homo sapiens; assay: Compound was tested in vivo inhibitory activity against CD11b up-regulation at 4 hours in normal volunteers.; assay type: functional
[22] = biological target: T2, Leukotriene B4 receptor 1; assay: Compound was tested for inhibitory activity against Leukotriene B4 receptor binding
[23] = tested on: Mus musculus; assay: Compound was tested in vivo inhibitory activity against AA induced ear edema and MPO release (orally).; assay type: functional; settings: po
[24] = tested on: Mus musculus; assay: Compound was tested in vivo inhibitory activity against AA induced ear edema and MPO release.; assay type: functional
[25] = tested on: Rattus norvegicus; assay: Compound was tested in vivo inhibitory activity against rat neutropenia at 4h.; assay type: functional
[26] = tested on: Rattus norvegicus; assay: Compound was tested in vivo inhibitory activity against rat neutropenia at 18 h.; assay type: functional
[27] = tested on: Homo sapiens; assay: Fold shift in LTD4 dose response curve 24 hr following 450 mg oral dose; assay type: functional
[28] = species: Homo sapiens; assay: Fold shift in LTD4 dose response curve 3-5 hr after 5 days 450 mg bid; assay type: functional
[29] = species: Homo sapiens; assay: Fold shift in LTD4 dose response curve […] after 5 days of 450 mg bid; assay type: functional
[30] = phase 1 oral half life at a dose 200 mg. (200 mg provided >95% inhibition of ex vivo stimulated LTB4 in blood up to 18 hour post dose); assay type: organism-based; settings: human
[31] = tested on: Cavia porcellus; assay: Compound was tested for in vivo inhibition against gp antigen bronchospasm.; assay type: functional; settings: Bronchiole
[32] = species: Homo sapiens; assay: Compound was tested for in vitro inhibition against human whole blood.; assay type: functional
[33] = species: Homo sapiens; assay: Compound was tested for in vitro inhibition against human PMNL.; assay type: functional
[34] = tested on: RBL-1; assay: Compound was tested for in vitro inhibition against broken RBL-1.; assay type: functional; settings: Rattus norvegicus
[35] = tested on: Rattus norvegicus; assay: Compound was tested for in vivo inhibition against rat peritoneal anaphylaxis.; assay type: functional
[36] = tested on: Cavia porcellus; assay: Compound was tested in vivo inhibitory activity to block 12 (R)-HETE skin inflammation (peroral administration) at 3 mg/kg; assay type: functional; settings: route oral
[37] = tested on: Cavia porcellus; assay: Compound was tested in vivo inhibitory activity against LTB4 induced neutrophil cutaneous influx in guinea pig; assay type: functional
[38] = species: Homo sapiens; assay: Compound was tested in vitro inhibitory activity against […] induced chemotaxis of human neutrophil; assay type: functional
[39] = tested on: Homo sapiens; assay: Shift in LTB-4 dose response curve for CD11b upregulation in normal volunteers; assay type: functional
[40] = tested on: Mus musculus; assay: Compound was tested in vivo inhibitory activity against LTB4 induced neutrophil cutaneous influx in mouse.; assay type: functional
[41] = species: Homo sapiens; assay: Compound was tested in vitro for inhibitory activity in LTB4 induced Ca mobilization.; assay type: functional, organism-based
[42] = species: Homo sapiens; assay: Compound was tested in vitro inhibitory activity against 12-R-HETE induced Ca mobilization; assay type: functional
[43] = species: Homo sapiens; assay: Compound was tested in vitro inhibitory activity against LTB4 induced neutrophil degranulation; assay type: functional
[44] = biological target: T2, Leukotriene B4 receptor 1; assay: Compound was tested for binding affinity against human neutrophil LTB4 (leukotriene) receptor
[45] = tested on: Mus musculus; assay: Compound was tested in vivo inhibitory activity against AA induced ear edema (topically); assay type: functional
[46] = tested on: Mus musculus; assay: Compound was tested in vivo inhibitory activity against AA induced ear edema(orally); assay type: functional; settings: po
[47] = tested on: Mus musculus; assay: Compound was tested in vivo inhibitory activity against PMA induced ear edema; assay type: functional
[48] = Compound was tested for in vivo inhibition against antigen bronchospasm.; assay type: functional; settings: Rattus norvegicus, Bronchiole
[49] = species: Homo sapiens; assay: Compound were tested for in vitro inhibition against human whole blood.
[50] = tested on: RBL-1; assay: Compound were tested for in vitro inhibition against broken RBL-1.; assay type: functional; settings: Rattus norvegicus
[51] = phase 1 oral half life
[52] = species: Rattus norvegicus; assay: Compound was tested for in vitro inhibition using FLAP binding assay
[53] = Compound was determined in vivo in squirrel monkey antigen bronchospasm; settings: Saimiri sciureus, Bronchiole
[54] = species: Cavia porcellus; assay: Compound was tested in vitro for inhibitory activity against guinea pig neutrophil aggregation; assay type: functional
[55] = species: Homo sapiens; assay: Compound was tested in vitro for inhibitory activity against human neutrophil aggregation.; assay type: functional
[56] = species: Homo sapiens; assay: Compound was tested in vitro for inhibitory activity against human neutrophil chemotaxis.; assay type: functional
[57] = tested on: Oryctolagus cuniculus; assay: Compound was tested in vivo inhibitory activity against LTB4 induced neutropenia in rabbit (intravenous); assay type: functional

CCCc1c(OCCCCCCc2cccc(OCCCCCC(=O)O)c2CCC(=O)O)ccc2c1OCCC2=O
ED50 [1]: < 0.1 mg/kg
ED50 [2]: < 1 mg/kg

O=C(O)CCS[C@H](c1ccccc1CCCCCCCCc1ccccc1)[C@@H](O)C(=O)O [POBILUKAST]
Ki [3]: 5 nM
Activity [4]: 3
Activity [5]: 10

CCCc1c(OCCCCc2nnn[nH]2)ccc(C(C)=O)c1O [TOMELUKAST]
Activity [6]: 4.6

CCCc1c(OCCCOc2cc(O)c(-c3ccc(F)cc3)cc2CC)cccc1Oc1ccccc1C(=O)O [ETALOCIB]
ED50 [7]: 0.04 mg/kg
ED50 [8]: 0.4 mg/kg
IC50 [9]: 20 nM
Ki [10]: 25 nM
IC50 [11]: 3.9 nM

COC1(c2cc(F)cc(OCc3ccc4c(ccc(=O)n4C)c3)c2)CCOCC1 [ZD-2138]
ED50 [12]: 0.1 mg/kg
IC50 [13]: 20 nM
ED50 [14]: 1.8 mg/kg
IC50 [15]: 3 nM
ED50 [16]: 0.3 mg/kg

COc1cc(C(=O)N(C(C)C)C(C)C)ccc1OCCCCCOc1ccc(C(=N)N)cc1 [MOXILUBANT]
IC50 [17]: 0.3 nM
IC50 [18]: 2 nM
IC50 [19]: 0.1 nM
IC50 [20]: 2.4 nM
ED100 [21]: 300 mg
IC50 [22]: 4 nM
ED50 [23]: 1.8 mg/kg
ED50 [24]: 1.4 mg/kg
ED50 [25]: 4 mg/kg
ED50 [26]: 11 mg/kg

O=C(Nc1cccc2c(=O)cc(-c3nnn[nH]3)oc12)c1ccc(OCCCCc2ccccc2)cc1
Activity [27]: 7
Activity [28]: 28
Activity [29]: 26

C[C@H](C#Cc1ccc(Cc2ccc(F)cc2)s1)N(O)C(N)=O [ATRELEUTON]
half-life [30]: 15 h
ED50 [31]: 4 mg/kg
IC50 [32]: 150 nM
IC50 [33]: 23 nM
IC50 [34]: 23 nM
ED50 [35]: 0.6 mg/kg

O=C(O)C1(c2ccc3c(c2)OC[C@H](Cc2ccc(-c4ccccc4)cc2)[C@H]3O)CCCC1
inhibition in vivo at 3 mg/kg [36]: 75%
ED50 [37]: 0.3 mg/kg
IC50 [18]: 940 nM
IC50 [38]: 5 nM
Activity [39]: 10
ED50 [40]: 4.2 mg/kg
Kb ([11]; read-out: pA2 (converted)): 10 nM

O=C(O)/C=C/c1nc(CSc2c(Cl)cccc2Cl)ccc1OCCc1ccccc1 [TICOLUBANT]
IC50 [41]: 6.6 nM
IC50 [42]: 1.3 nM
IC50 [43]: 117 nM
Ki [44]: 0.8 nM
ED50 [45]: 20 µg
ED50 [46]: 19 mg/kg
ED50 [47]: 114 µg

CC(C)(C)Sc1c(CC(C)(C)C(=O)[O-])n(Cc2ccc(Cl)cc2)c2ccc(OCc3ccc4ccccc4n3)cc12.[Na+] [QUIFLAPON SODIUM]
ED50 [48]: 0.16 mg/kg
IC50 [49]: 510 nM
IC50 [50]: 6 nM
T1/2 [51]: 6 h
IC50 [52]: 1.6 nM
ED50 [53]: 0.3 mg/kg

COc1ccc(/C=C/CCCCOc2ccc(C(=O)c3cccc(C(=O)O)c3)cc2CCC(=O)O)cc1
IC50 [54]: 74 nM
IC50 [55]: 100 nM
IC50 [56]: 6 nM
ED50 [57]: 3 mg/kg

Source: ChEMBL document CHEMBL1129361, “Modulators of leukotriene biosynthesis and receptor activation” (J Med Chem, 1996)
